The source of these data is PMC12307812 (Nature Communications, 2025).

The target of the first test is T1, Recombinant Human TMPRSS2 (Homo sapiens, UniProt O15393).
T1 construct: human TMPRSS2 residues 106492, N-terminal 6x His-tag; 6x His-tag (N); purchased Cusabio CSB-YP023924HU; host or cells: yeast
T1 sequence (O15393 106-492 limits assumed): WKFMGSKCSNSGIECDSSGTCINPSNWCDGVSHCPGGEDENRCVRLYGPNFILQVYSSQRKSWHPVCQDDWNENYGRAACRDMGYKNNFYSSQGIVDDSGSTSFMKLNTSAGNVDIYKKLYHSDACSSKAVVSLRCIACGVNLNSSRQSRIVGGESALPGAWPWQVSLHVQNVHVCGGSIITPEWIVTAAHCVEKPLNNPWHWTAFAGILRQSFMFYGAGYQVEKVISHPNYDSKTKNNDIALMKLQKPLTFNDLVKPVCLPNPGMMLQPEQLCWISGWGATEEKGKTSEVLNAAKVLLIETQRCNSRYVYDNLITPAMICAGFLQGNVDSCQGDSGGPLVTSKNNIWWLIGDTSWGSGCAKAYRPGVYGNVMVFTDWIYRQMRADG
Nature of the test: TMPRSS2 biochemical assay (Boc-Gln-Ala-Arg-AMC fluorogenic substrate). The note with it: first round of screening on the NCATS in-house library (docking score selection); read-out: IC50. On the procedure: Inhibitors of TMPRSS2 were tested using a high throughput activity assay. […] TMPRSS2 (5 µl, 0.018 mg/ml) in assay buffer (50 mM Tris pH 8, 150 mM NaCl, 0.01% Tween20) was dispensed to that, using a BioRAPTR (Beckman Coulter), for a total assay volume of 5 µl.
After incubation at room temperature for 1 h, fluorescence was measured. […] Raw plate reads for each titration point were normalized relative to a positive control containing no enzyme (0% activity, full inhibition) and a negative control containing DMSO-only wells (100% activity, basal activity). Data normalization was performed using GraphPad Prism (GraphPad Software, San Diego, CA).
We employed the curve fitting algorithm available in the SciPy package (version 1.10.1)[61] to derive the Hill slope and the IC50 value, along with their corresponding error estimates.
One may read the IC50 as the midpoint of a concentration-inhibition curve. Take `OCCn1cc(-c2cnc3nnn(Cc4ccc5ncccc5c4)c3n2)cn1` [NCGC00263161-11]: the IC50 is 19.9 µM.
As for `Cn1nnc(-c2ccc(-c3ccc(N4C[C@H](COP(=O)(O)O)OC4=O)cc3F)cn2)n1` [NCGC00482851-02], the IC50 worked out at 35.5 µM.
For the compound `Fc1cc(F)cc(Cc2nc3nccc(-c4cc5ccccc5o4)n3n2)c1` [NCGC00424555-01], the IC50 is 12.6 µM.
On to `CCOC(=O)c1cccc(Nc2ccc3cc(S(=O)(=O)N4CCCCC4)ccc3n2)c1` [NCGC00127764-01], for which the IC50 turned out to be 14.1 µM.
As to `CC(C)c1ccc2oc(-c3ccc(NC(=O)c4cc5ccccc5o4)cc3)nc2c1` [NCGC00099237-01], the IC50 was found to be 22.4 µM.
On to `O=C(NCc1ccc(-c2cnc3c(Oc4ccccc4)nccn23)cc1)c1ccn[nH]1` [NCGC00413991-01], for which the IC50 came out at 35.5 µM.
As to `Cn1ccc2c(C(=O)NCCc3cnc[nH]3)nc(-c3cnn(Cc4ccccc4)c3)cc21` [NCGC00411713-01], the IC50 was 35.5 µM.
`COC(=O)c1ccc(OC)c(Cn2c(=O)n(-c3cccc(Cl)c3)c(=O)c3c2c2cc(C)ccc2n3C)c1` [NCGC00104930-01]: the IC50 is 31.6 µM.
Turning to `COC(=O)c1ccccc1NC(=O)CCCS(=O)(=O)c1nc(-c2ccccc2OC)cc(C(F)(F)F)n1` [NCGC00103995-01], the 50% inhibitory concentration (IC50) stood at 14.1 µM.
For `Nc1n[nH]c(CNc2cc(-c3ccc(F)cc3)nc3ccnn23)n1` [NCGC00434595-01], the IC50 turned out to be 19.9 µM.
Same read-out and setting: then `CC(=O)Nc1cccc(-c2nc(-c3c(C)noc3C)cc3c2cc(-c2ccccc2)n3C)c1` [NCGC00417192-01], with 8.91 µM; and `COC(=O)c1ccc(Nc2nc(-c3ccc(C)cc3)nc3ccccc23)cc1` [NCGC00099825-01], with 17.8 µM.
With `COc1ccc(-c2cc(C(=O)Oc3ccc(C)c(C)c3)c3ccccc3n2)cc1` [NCGC00099485-01], the IC50 was determined as 15.8 µM.
On to `O=C(OCC(O)CO)c1ccccc1Nc1ccnc2c(C(F)(F)F)cccc12` (stereo not drawn) [NCGC00249912-01], for which the half-maximal inhibitory concentration (IC50) was found to be 31.6 µM.
`CC(=O)Nc1cccc(-c2cc3c(ccn3C)c(C(=O)NCc3c(C)cc(C)[nH]c3=O)n2)c1` [NCGC00411690-01]: the IC50 was determined as 17.8 µM.
For the compound `CCOC(=O)c1c(-c2ccc(OC)cc2)oc2ccc(OCc3ccc(F)cc3F)cc12` [NCGC00099773-01], the IC50 turned out to be 31.6 µM.
On the same count and under the same terms, for `COC(=O)Cc1c(C)c2ccc3c(c2oc1=O)CN(Cc1ccc(C)cc1)CO3` [NCGC00116348-01] the value was 15.8 µM.
Consider `CCCCC(=O)Oc1ccc2oc(-c3ccc(OC)cc3)cc(=O)c2c1` [NCGC00100604-01], for which the IC50 was 12.6 µM.
Regarding `Cc1cc(C(=O)Nc2cc(Oc3ccc4nc(NC(=O)C5CC5)cn4n3)ccc2C)n(C)n1` [NCGC00485933-01], the IC50 worked out at 31.6 µM.
For the compound `Cc1cc(C)c(CNC(=O)c2nc(-c3cccc(C(F)(F)F)c3)cc3[nH]ccc23)c(=O)[nH]1` [NCGC00411596-01], the IC50 was determined as 8.91 µM.
On to `CCOc1ccc(-n2nc(CO)c(C(=O)NCC(c3ccccc3)c3ccccc3)n2)cc1` [NCGC00117127-01], for which the IC50 turned out to be 22.4 µM.
Regarding `Cc1cccc(-n2ncc3c(Nc4ccc(Oc5ccc(Cl)cc5)cc4)ncnc32)c1` [NCGC00138820-01], the IC50 amounted to 12.6 µM.
Take `COC(=O)CNC(=O)c1nc(-c2cccc(C(F)(F)F)c2)c2ccccn12` [NCGC00476320-01]: the IC50 amounted to 15.8 µM.

Still in this test, the particulars now being: hits from NCATS in-house library screening; read-out: IC50, TMPRSS2 biochemical assay.
Take `CCOC(=O)CCN(C(=O)c1ccc2c(c1)nc(CNc1ccc(C(=N)N)cc1)n2C)c1ccccn1` [dabigatran ethyl ester]: the IC50 was found to be 2.24 µM.

Still in this test, the particulars now being: second round of screening on the NCATS in-house library (dynamic h-score selection); read-out: IC50.
For the compound `Nc1nn(-c2ccccc2)nc1C(=O)OCc1ccccc1Br` [NCGC00102940-01], the IC50 stood at 17.8 µM.
For the compound `O=C(OCC1CCCO1)c1ccc2c(c1)N(Cc1ccc(F)cc1)C(=O)c1ccccc1S2(=O)=O` (stereo not drawn) [NCGC00127812-01], the IC50 came to 15.8 µM.
Turning to `Nc1nn(-c2ccccc2)nc1C(=O)OCc1ccccc1` [NCGC00102837-01], the 50% inhibitory concentration (IC50) worked out at 17.8 µM.
With `Cc1ccc(C(=O)Oc2ccc(C(O)CNC(C)(C)C)cc2OC(=O)c2ccc(C)cc2)cc1` (stereo not drawn) [NCGC00253593-01], the IC50 turned out to be 14.1 µM.
The same measure, in the same setting: then `COc1cccc(COC(=O)c2ccc(-c3nnn(Cc4ccccc4)n3)cc2)c1` [NCGC00102929-01], with 17.8 µM.
Turning to `Cc1cc(-c2cc3c(nc2-c2ccccc2)nc(C(=O)NCCN(C)C)n3C)ccn1` [NCGC00417822-01], the IC50 came out at 19.9 µM.
Still for that read-out and setting: for `CC(=O)Nc1ccc(CN2C(=O)OC3(CCN(C(=O)c4cccc(C#N)c4)CC3)C2(C)c2ccccc2)cc1` (stereo not drawn) [NCGC00415676-01] the value was 31.6 µM.

The next test deals with TMPRSS2.
Assay: not given
The arrangement: method as in earlier work. The settings on record: top 50 compounds by AUC, Figure 2 source data; cited from earlier work.
On to `C=CCN1CC[C@]23CCCC[C@H]2[C@H]1Cc1ccc(O)cc13` [NCGC00162247-06], for which the “max response (%)” value was -23.7786%.
In the case of `CC[C@H](C)[C@H]1O[C@]2(C=C[C@@H]1C)C[C@@H]1C[C@@H](C/C=C(\C)[C@@H](O[C@H]3C[C@H](OC)[C@@H](O[C@H]4C[C@H](OC)[C@@H](O)[C@H](C)O4)[C@H](C)O3)[C@@H](C)/C=C/C=C3\CO[C@@H]4[C@H](O)C(C)=C[C@@H](C(=O)O1)[C@]34O)O2` [NCGC00168290-05], the “max response (%)” value is on record as -26.1435%.
For `O=C1N=C([O-])CN1/N=C/c1ccc(-c2ccc([N+](=O)[O-])cc2)o1.[Na+]` [NCGC00024622-05], the “max response (%)” value is listed as -21.3359%.
With `CC12CCC(CC1=O)C2(C)C` (stereo not drawn) [NCGC00090730-03], the “max response (%)” value was -1.87%.
As to `Cc1ccc(S(=O)(=O)NC(=O)NN2CC3CCCC3C2)cc1` (stereo not drawn) [NCGC00095107-09], the “max response (%)” value is -9.733%.
`CC(=O)Oc1cc(C(C)C)c(OCCN(C)C)cc1C` [NCGC00015678-10]: the “max response (%)” value is -9.504%.
Turning to `CCCNCC(O)COc1ccccc1C(=O)CCc1ccccc1` (stereo not drawn) [NCGC00015819-15], the “max response (%)” value is recorded as -5.725%.
Take `CS(=O)(=O)O.C[C@H](N)C(=O)N[C@@H](C)C(=O)NC1[C@H]2CN(c3nc4c(cc3F)c(=O)c(C(=O)O)cn4-c3ccc(F)cc3F)C[C@@H]12` (stereo partly drawn) [NCGC00261969-01]: the “max response (%)” value is listed as -25.1766%.
In the case of `CC(CCc1ccccc1)NC(C)C(O)c1ccc(O)cc1` (stereo not drawn) [NCGC00015716-09], the “max response (%)” value was -20.1145%.
For the compound `Cc1cc(C)cc(OCC2CNC(=O)O2)c1` (stereo not drawn) [NCGC00095116-05], the “max response (%)” value is reported as -5.458%.
Turning to `CN[C@H]1C[C@@H](N)[C@H](O)[C@@H](O[C@@H]2O[C@H](CO)[C@H](O)[C@@H]3OC4(O[C@H]23)O[C@H]([C@@H](N)CO)[C@H](O)[C@H](O)[C@H]4O)[C@@H]1O` (stereo partly drawn) [NCGC00188433-02], the “max response (%)” value is reported as -14.1688%.
As to `CCCCc1cc2ccccc2c(OCCN(C)C)n1` [NCGC00016618-04], the “max response (%)” value was -11.3359%.
As for `S=P(N1CC1)(N1CC1)N1CC1` [NCGC00095042-09], the “max response (%)” value is listed as -29.4275%.
In the case of `CC=CC1C(C(=O)OCc2c(F)c(F)c(COC)c(F)c2F)C1(C)C` (stereo not drawn) [NCGC00319021-01], the “max response (%)” value is listed as -16.0283%.
On to `Cl.NCCNC(=O)c1ccc(Cl)cn1` [NCGC00167737-02], for which the “max response (%)” value is given as -9.8855%.
As for `O=[N+]([O-])C(Br)(CO)CO` [NCGC00164057-03], the “max response (%)” value was -6.336%.
In the case of `N=C(N)c1ccc(OCCCOc2ccc(C(=N)N)cc2Br)c(Br)c1` [NCGC00189076-01], the “max response (%)” value is -77.315%.
As to `CCOC(=O)Cn1cccc1-c1nc(-c2ccc(OC)cc2)c(-c2ccc(OC)cc2)s1` [NCGC00182996-01], the “max response (%)” value is recorded as -15.3817%.
On to `C[C@]12CCC(=O)C=C1CC[C@@H]1[C@@H]2[C@@H](O)C[C@@]2(C)[C@H]1CC[C@]2(O)C(=O)CO` [NCGC00022848-17], for which the “max response (%)” value was -0.7252%.
Turning to `O=C(c1ccc(F)cc1)C1CCN(CCn2c(=O)[nH]c3ccccc3c2=O)CC1` [NCGC00021146-09], the “max response (%)” value is -16.7557%.
With `CC(C(=O)O)c1ccc(C(=O)c2cccs2)cc1` (stereo not drawn) [NCGC00094916-06], the “max response (%)” value is -15.5344%.
Regarding `N=C(N)c1ccc2cc(OC(=O)c3ccc(N=C(N)N)cc3)ccc2c1` [NCGC00160398-05], the “max response (%)” value was -96.6794%.
`Nc1ncnc2nc[nH]c12` [NCGC00094856-05]: the “max response (%)” value is given as -3.511%.
Turning to `CCCCCCCCCCCCCCCC[n+]1ccccc1.[Br-]` [NCGC00091023-06], the “max response (%)” value was -21.1069%.
For the compound `O=c1c(O)c(-c2ccc(O)c(O)c2)oc2cc(O)cc(O)c12` [NCGC00015870-27], the “max response (%)” value is recorded as -35.5344%.
Regarding `C#C[C@]1(O)CC[C@H]2[C@@H]3CCC4=CC(=O)CCC4=C3C=C[C@@]21CC` [NCGC00167457-02], the “max response (%)” value is reported as -24.7304%.
With `Clc1cccc(C(c2ccc3nc[nH]c3c2)n2ccnc2)c1` (stereo not drawn) [NCGC00181034-03], the “max response (%)” value was -10.9542%.
Consider `CC(=O)Oc1cccc(O)c1` [NCGC00095054-05], for which the “max response (%)” value is reported as -8.588%.
Regarding `O=C(O)CCNC(=O)c1ccc(N=Nc2ccc(O)c(C(=O)O)c2)cc1` [NCGC00164634-02], the “max response (%)” value is recorded as -22.1756%.
Consider `CC(N)C12CC3CC(CC(C3)C1)C2.Cl` (stereo not drawn) [NCGC00159491-04], for which the “max response (%)” value was -13.9313%.
`CN(C(=O)C(Cl)Cl)c1ccc(OC(=O)c2ccco2)cc1` [NCGC00016637-10]: the “max response (%)” value is listed as -56.9847%.
As to `COc1cc(C)c(Cc2cnc(N)nc2N)cc1OC` [NCGC00167523-03], the “max response (%)” value is recorded as -8.206%.
